According to publication PMC6604316 (Virology Journal, 2019):
Read-outs that look alike come from different tables or passages of the source. Marks after values point to notes of the source that are not given here.

Biological target: NA of A/Texas/12/2007 (H3N2 119 V) (Influenza A virus (A/Texas/12/2007(H3N2)), UniProt D1FVK3, I119V)
Experiment: biochemical
Assay type: biochemical

Molecule | IC50 | Fold change | IC50 (read-out: Mean IC50 (nM) ± SD)
CC(=O)N[C@H]1[C@H]([C@H](O)[C@H](O)CO)OC(C(=O)O)=C[C@@H]1N=C(N)N [Zanamivir, zanamivir] | 1.56 ± 0.55 nM | – | –
oseltamivir carboxylate | – | 520.08^c fold | 62.4 ± 2.16 nM
